Measurements from patent US9096601B2 (CSPC Zhongqi Pharmaceutical Technology (Shijiazhuang) Co., …, priority 2010, dated 2015).

Columns and labels:
[1] = system: non-small cell lung carcinoma cell strain H1975 (EGFR L858R/T790M mutation); assay: In-vitro tumor cell proliferation inhibition, MTT; format: cell-based, human; details: 72 hours
[2] = system: non-small cell lung carcinoma cell strain H292 (EGFR WT); assay: In-vitro tumor cell proliferation inhibition, MTT; format: cell-based, human; details: 72 hours
[3] = system: non-small cell lung carcinoma cell strain HCC827; assay: In-vitro tumor cell proliferation inhibition, MTT; format: cell-based, human; details: 72 hours
Procedure, shortened: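 Cells grown in RPMI-1640 with 10% FBS, seeded overnight (HCC827 at 6×10^4 cells/ml), then exposed to graded compound concentrations for 72 h at 37 °C, 5% CO2, with 1% DMSO solvent control. MTT absorbance at 570 nm; inhibition relative to control; triplicate wells, ≥3 repeats.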

[4] = system: non-small cell lung carcinoma cell strain PC-9 (EGFR delE746-A750 deletion mutation); assay: In-vitro tumor cell proliferation inhibition, MTT; format: cell-based, human; details: 72 hours
[5] = system: breast carcinoma cell strain BT474; assay: In-vitro tumor cell proliferation inhibition, MTT; format: cell-based, human; details: 72 hours
Procedure, shortened: (§1)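 MTT colorimetric proliferation test: plated cells exposed 72 h to compound dilution series, DMSO 1% solvent control included. A570 gave inhibition relative to drug-free control; IC50 or inhibitory rate from at least three experiments. HCC827 and BT474 grown in RPMI-1640, A431 and SW620 in DMEM, both with 10% FBS.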

[6] = system: breast carcinoma cell strain MDA-MB-468; assay: In-vitro tumor cell proliferation inhibition, MTT; format: cell-based, human; details: 72 hours
[7] = system: chronic granulocytic leukemia cell strain K562; assay: In-vitro tumor cell proliferation inhibition, MTT; format: cell-based, human; details: 72 hours
[8] = system: colon cancer cell strain SW620; assay: In-vitro tumor cell proliferation inhibition, MTT; format: cell-based, human; details: 72 hours
Procedure, shortened: as §1

[9] = system: gastric cancer cell strain MK-45; assay: In-vitro tumor cell proliferation inhibition, MTT; format: cell-based, human; details: 72 hours, read-out: MK45 (IC50)
[10] = system: liver cancer cell strain Hep G2; assay: In-vitro tumor cell proliferation inhibition, MTT; format: cell-based, human; details: 72 hours, read-out: HEPG2 (IC50)
[11] = system: malignant melanoma cell strain A375; assay: In-vitro tumor cell proliferation inhibition, MTT; format: cell-based, human; details: 72 hours
[12] = system: human non-small cell lung carcinoma cell strain HCC827; assay: In-vivo anti-tumor test, nude mouse subcutaneously transplanted non-small cell lung carcinoma model; details: nude mice, intragastric
Source text: The object of this assay was to determine the in-vivo anti-tumor effect of the present compound. In this assay, a nude mouse subcutaneously transplanted non-small cell lung carcinoma model was used to test the present compound 8-10 for the in-vivo anti-tumor activity. The used cell strain was human non-small cell lung carcinoma cell strain HCC827.
BALB/C nude mice, aged 6-8 weeks, were inoculated with HCC827 cell subcutaneously at the posterior segment of rib in a concentration of about 5×10^6 cells/0.1 ml per mouse. Upon the growth of the tumor up to 200-300 mm^3 (about 20 days), mice were grouped (n=6) and administrated intragastrically.
(§2) Observation Indices: the mice were measured every three days for the weight, and the length and width of tumor, and the tumor volume was calculated as length×width^2×0.52. […] 3. Results

[13] = system: human acute myelogenous leukemia cell strain MV4-11; assay: In-vivo anti-tumor test, NOD-SCID mouse subcutaneously transplanted human leukemic solid tumor model; details: NOD-SCID mice, intragastric
Source text: The object of this assay was to determine the in-vivo anti-tumor effect of the present compound. In this assay, a NOD-SCID mouse subcutaneously transplanted human leukemic solid tumor model was used to test the present compound 8-29 for the in-vivo anti-tumor activity. The used cell strain was human acute myelogenous leukemia cell strain MV4-11.
NOD-SCID mice, aged 6-8 weeks, were inoculated with MV4-11 cell subcutaneously at the posterior segment of rib in a concentration of about 1×10^7 cells/0.1 ml per mouse. Upon the growth of the tumor up to 400-500 mm^3 (about 20 days), mice were grouped (n=6) and administrated intragastrically.
as §2

| Compound | IC50 [1] [nM] | IC50 [2] [nM] | IC50 [3] [nM] | IC50 [4] [nM] | IC50 [5] [nM] | IC50 [6] [nM] | IC50 [7] [nM] | IC50 [8] [nM] | IC50 [9] [nM] | IC50 [10] [nM] | IC50 [11] [nM] | in-vivo tumor growth inhibition ([12]; HCC827 xenograft, 2 mg/kg q.d. or higher (2, 5, 10, 20 mg/kg q.d.)) | toxicity (untoward reactions: weight reduction, exanthema, diarrhea) ([12]; 2-20 mg/kg q.d.) | in-vivo tumor growth inhibition ([13]; MV4-11 xenograft, 5 mg/kg q.d. or higher (5, 10, 20 mg/kg q.d.)) | toxicity (untoward reactions: weight reduction, exanthema, diarrhea) ([13]; 5-20 mg/kg q.d.) |
| --- | --- | --- | --- | --- | --- | --- | --- | --- | --- | --- | --- | --- | --- | --- | --- |
| CC(C)n1c(Nc2ccccc2)nc2cnc(Nc3ccc(N4CCN(C)CC4)cc3)nc21 [Compounds 8-10] | 2000 | 10.5 | 0.1 | 0.9 | 226 | 700 | 106 | 6060 | > 1000 | 4800 | 1490 | substantial in-vivo growth inhibition | low toxicity | – | – |
| CC(C)n1c(Nc2cccnc2)nc2cnc(Nc3ccc(N4CCN(C)CC4)cc3)nc21 [Compounds 8-29] | > 10000 | 180 | 7.2 | 10 | 2260 | 8120 | 240 | 5800 | 8170 | > 10000 | 1880 | – | – | substantial in-vivo growth inhibition | low toxicity |
